Assays:
Phosphodiesterase 1 = Phosphodiesterase 1 (Homo sapiens, UniProt P54750+Q01064+Q14123); test: Inhibition of phosphodiesterase 1; type: protein assay
[1] = target: cGMP-specific 3',5'-cyclic phosphodiesterase (Homo sapiens, UniProt O76074)
Description: Inhibition of phosphodiesterase 5

| Structure (SMILES) | IC50 (Phosphodiesterase 1) | IC50 [1] |
| --- | --- | --- |
| CCOc1ccc(S(=O)(=O)N2CCN(CCO)CC2)cc1-c1nc(O)c2onc(C3CCCC3)c2n1 | 30 nM | 10 nM |
| CCOc1ccccc1-c1nc(O)c2nnn(C3CCCC3)c2n1 | 800 nM | 500 nM |
| CCCc1nc(C)c2c(=O)[nH]c(-c3ccccc3OCC)nn12 | 300 nM |  |
| CCOc1ccc(S(=O)(=O)N2CCN(CCO)CC2)cc1-c1nc(O)n2c(C)nc(C3CCCC3)c2n1 | 30 nM | 10 nM |
| CCOc1ccc(S(=O)(=O)N2CCN(CCO)CC2)cc1-c1nc(O)c2nnc(C3CCCC3)n2n1 | 50 nM | 50 nM |
| CCOc1ccc(S(=O)(=O)N2CCN(CCO)CC2)cc1-c1nc(O)c2c(C)nc(C)n2n1 | 1000 nM | 10 nM |
| CCOc1ccccc1-c1nc(O)n2c(C)nc(C3CCCC3)c2n1 | 40 nM | 20 nM |
| CCOc1ccc(S(=O)(=O)N2CCN(C)CC2)cc1-c1nc2c(c(CC)nn2C2CCCC2)c(=O)[nH]1 | > 1000 nM | 40 nM |
| CCCn1nc(CC)c2c(=O)[nH]c(-c3cc(S(=O)(=O)N4CCN(C)CC4)ccc3OCC)nc21 | > 1000 nM | 20 nM |
| CCCn1nc(C)c2c(=O)[nH]c(-c3cc(S(=O)(=O)N4CCN(C)CC4)ccc3OCC)nc21 | 1000 nM | 8 nM |
| CCCn1cnc2c(O)nc(-c3ccccc3OCC)nc21 | 10 nM |  |
| CCCc1nc(C)c2c(=O)[nH]c(-c3cc(S(=O)(=O)N4CCN(C)CC4)ccc3OCC)nn12 | 300 nM |  |
| CCOc1ccccc1-c1nc(O)c2c(C)nc(C)n2n1 | 1000 nM | 200 nM |
| CCOc1ccccc1-c1nc(O)c2ncn(C3CCCC3)c2n1 | 500 nM | 50 nM |
| CCOc1ccccc1-c1nc(O)c2onc(C3CCCC3)c2n1 | 200 nM | 20 nM |
| CCOc1ccc(S(=O)(=O)N2CCN(C)CC2)cc1-c1nc(O)c2c(C)nc(C3CCCC3)n2n1 | 10 nM | 1 nM |

| Structure (SMILES) | IC50 (Phosphodiesterase 1) | IC50 [1] |
| --- | --- | --- |
| CCCc1nc(C)n2c(O)nc(-c3ccccc3OCC)nc12 | 200 nM | 40 nM |
| CCOc1ccccc1-c1nc(O)c2c(C)nc(C3CCCC3)n2n1 | 30 nM | 5 nM |
| CCOc1ccccc1-c1nc(O)c2nnc(C3CCCC3)n2n1 | 50 nM | 200 nM |
| CCOc1ccc(S(=O)(=O)N2CCN(C)CC2)cc1-c1nc(O)c2c(CC)nc(C3CCCC3)n2n1 | > 1000 nM | 7 nM |
| CCCc1n[nH]c2c(O)nc(-c3ccccc3OCC)nc12 |  | 50 nM |
| CCOc1ccccc1-c1nc(O)c2ncn(C3CC3)c2n1 | 1000 nM | 300 nM |
| CCCn1nc(C)c2c(=O)[nH]c(-c3ccccc3OCC)nc21 |  | 1 nM |
| CCOc1ccc(S(=O)(=O)N2CCN(CCO)CC2)cc1-c1nc(O)c2c(n1)c(C1CCCC1)nn2C | 10 nM | 5 nM |
| CCOc1ccc(S(=O)(=O)N2CCN(CCO)CC2)cc1-c1nc(O)c2c(C)nc(C3CCCC3)n2n1 | 10 nM | 1 nM |
| CCCc1nn(C)c2c(=O)[nH]c(-c3ccccc3OCC)nc12 | 790 nM |  |
| CCCc1nc(C)c2c(O)nc(-c3cc(S(=O)(=O)N4CCN(CCO)CC4)ccc3OCC)nn12 | 20 nM | 5 nM |
| CCCc1nc(C)n2c(O)nc(-c3cc(S(=O)(=O)N4CCN(C)CC4)ccc3OCC)nc12 | 500 nM | 10 nM |
| CCCc1nc(CC)c2c(O)nc(-c3cc(S(=O)(=O)N4CCN(C)CC4)ccc3OCC)nn12 | > 1000 nM | 8 nM |
| CCCn1cnc2c(O)nc(-c3cc(S(=O)(=O)N4CCN(C)CC4)ccc3OCC)nc21 |  | 10 nM |
| CCCn1nnc2c(O)nc(-c3ccccc3OCC)nc21 |  | 300 nM |
| CCOc1ccccc1-c1nc(O)c2ncn(C3CCC3)c2n1 | 1000 nM | 100 nM |

— ChEMBL document CHEMBL1142799, “Comparison of different heterocyclic scaffolds as substrate analog PDE5 inhibitors” (Bioorg Med Chem Lett, 2005)
